Where “and” joins values, the source holds several entries; their conditions need not be identical. Identical values can stand only once. Entries after “also recorded” stand apart in the source; their conditions may differ.
Tests used:
[1] = tested on: human serum protein α1-acid glycoprotein (AAG); set-up: method as in PMID 11230495; conditions: cited from earlier work
[2] = Midostaurin PK when administered with rifampicin; conditions: for AUC(0-inf) / AUC(0-t) / Cmax / half-life: human, oral; for AUC(0-inf): AUC0–inf; for AUC(0-inf) / AUC(0-t) / Cmax: adjusted geometric mean; for AUC(0-t): AUC0–last; for Cmax: C max; for half-life: t 1/2, adjusted geometric mean
Procedure: These endogenous molecules served as exploratory biomarkers for CYP3A4 activity in vivo [21, 22].
A point estimate and the corresponding 90 % CI for the treatment effect (test vs reference) were calculated. These were anti-logged to obtain the GMR and respective 90 % CI. […] The median difference was estimated with the Hodges–Lehmann estimator and its respective exact two-sided 90 % CI. All formal comparative statistical analyses were performed using SAS software.
(§1) The concentration of ketoconazole in plasma was assessed using a validated LC–MS/MS assay with an LLOQ of 50.0 ng/mL (WuXi Pharmatech Co, Ltd, China). The concentration of rifampicin in plasma was measured using a validated LC–MS/MS assay with an LLOQ of 5.0 ng/mL (SGS, Cephac Europe, SAS). Plasma concentrations of midazolam and its metabolite 1′-hydroxymidazolam, which is generated by CYP3A4 and CYP3A5 in humans, were measured using a validated LC–MS/MS assay with an LLOQ of ≈0.100 ng/mL (SGS, Cephac Europe, SAS). The plasma concentration of 4β-hydroxycholesterol was measured using a validated LC–MS/MS assay with an LLOQ of 3.0 ng/mL (SGS, Cephac Europe, SAS). The concentrations of 6β-hydroxycortisol and cortisol in urine were determined using validated LC–MS/MS assays with an LLOQ of 10.0 ng/mL for 6β-hydroxycortisol and 1.0 ng/mL for cortisol. The ratio of 6β-hydroxycortisol to cortisol was subsequently calculated (SGS, Cephac Europe, SAS). See Supplementary Table 2 for detailed bioanalytical methods for all 3 studies.

[3] = tested on: CYP3A4; conditions: patients with ASM, 1–2 months of daily midostaurin dosing; cited from earlier work
[4] = cited from earlier work
[5] = Safety and tolerability, ketoconazole study; assay type: in vivo, human
Procedure: (§2) Adverse events (AEs) were recorded during the study and up to 1 month (28 days) after the end of study. Volunteers remained at the clinic until AEs were common toxicity criteria (CTC) grade ≤1.

[6] = Safety and tolerability, rifampicin study
[7] = tested on: patients with ASM; conditions: cited from earlier work
[8] = tested on: CYP3A4; assay: CYP3A4 activity in vivo in midazolam study (probe and endogenous biomarkers); set-up: species or system human
Procedure: Both inhibition and induction of midazolam clearance were investigated.
Similarly, blood and urine samples were taken on days 1, 3, 6, 7, 8, and 9 to measure the levels of 4β-hydroxycholesterol in plasma and the 6β-hydroxycortisol/cortisol ratio in urine, markers of CYP3A4 activity.
as §1

[9] = Midostaurin PK when administered with ketoconazole; conditions: for AUC(0-inf): AUC0–inf; for AUC(0-inf) / Cmax: adjusted geometric mean; for Cmax: C max; for half-life: t 1/2, adjusted geometric mean
Procedure: According to the US Food and Drug Administration, ketoconazole 400 mg once daily is the recommended dose to evaluate DDIs involving CYP3A4 inhibition. [drawing 1]
as §2
A point estimate and the corresponding 90 % CI for the treatment effect were calculated for the test treatment compared with the reference. These were anti-logged to obtain the point estimate and the 90 % CI for the geometric mean ratio (GMR) on the untransformed scale. […] All ANOVAs were performed using SAS software (SAS Institute Inc., Cary, NC, USA).
as §1

[10] = plasma, plasma, Placebo + midostaurin arm, rifampicin study, n = 20
[11] = plasma, plasma, Rifampicin + midostaurin arm, n = 20
[12] = ketoconazole study, both arms pooled (N = 47)
[13] = ketoconazole study: Mido 50 mg (n = 20) or Mido 50 mg + Keto 400 mg (n = 27)
[14] = rifampicin study: Mido 50 mg + Rifa 600 mg (n = 25) or Mido 50 mg (n = 21)
[15] = phase II, 100 mg twice daily, 26 patients with ASM
[16] = stage 1 analysis, global phase II study, ASM or mast cell leukemia
[17] = human, plasma, oral, plasma, Ketoconazole + midostaurin arm, n = 18
[18] = human, plasma, oral, plasma, Placebo + midostaurin arm, ketoconazole study, n = 18
[19] = midostaurin 50 mg single dose, ketoconazole 400 mg daily

CO[C@@H]1[C@H](N(C)C(=O)c2ccccc2)C[C@H]2O[C@]1(C)n1c3ccccc3c3c4c(c5c6ccccc6n2c5c31)C(=O)NC4 [Midostaurin]
bound to AAG [1]: 88–98% | increase in geometric mean of apparent clearance with rifampicin ([2]; compared with midostaurin administered alone): 16.9 fold | AUC(0-inf) ([2]; plasma, plasma, Placebo + midostaurin arm (midostaurin 50 mg once), rifampicin study, n = 20): 22800 ng·h/mL | AUC(0-inf) ([2]; plasma, plasma, Rifampicin + midostaurin arm (midostaurin 50 mg once, rifampicin 600 mg daily), n = 20): 1350 ng·h/mL | AUC(0-t) [2, 10]: 22000 ng·h/mL | AUC(0-t) [2, 11]: 1230 ng·h/mL | Cmax [2, 10]: 1620 ng/mL | Cmax [2, 11]: 440 ng/mL | half-life [2, 10]: 23 h | half-life [2, 11]: 5.14 h | decrease in exposure by induction of CYP3A4 by rifampicin ([2]; midostaurin 50 mg single dose, rifampicin 600 mg daily): more than tenfold | t max, median ([2]; plasma, Placebo + midostaurin arm, rifampicin study, n = 20): 1.02 h | change in level of endogenous CYP3A4 biomarker 4-β-hydroxycholesterol in plasma [3]: significant increase | free midostaurin concentrations [4]: 0.02 to 1 µM | major pathway for elimination [4]: Fecal excretion | period of time-linear accumulation ([4]; daily oral dosing): 3 to 6 days | time to new plateau of plasma concentrations ([4]; daily oral dosing): 2–3 weeks | mean apparent volume of distribution ([4]; healthy volunteers): 111 L | time of peak plasma concentrations postdose ([4]; human, in vivo, po): 1 to 3 h | dose proportionality of C max and AUC ([4]; single-dose administration): increased proportionally with dose following single-dose administration of midostaurin between 25- and 50-mg doses but under proportionally between 50- and 100-mg doses | tolerability ([5]; all 3 studies, single agent or in combination, healthy volunteers): generally well tolerated | intensity of AEs ([5]; ketoconazole study, both arms pooled): mild | participants who discontinued the study because of AEs [5, 12]: 15% | serious AEs [5, 12]: no serious AEs | Adverse event: Abdominal distension [5, 13]: 0 n (%) | Adverse event: Any preferred term [5, 13]: 13 (65.0) n (%) | Adverse event: Back pain [5, 13]: 0 n (%) | Adverse event: Chromaturia [5, 13]: 0 n (%) | Adverse event: Cough [5, 13]: 0 n (%) | Adverse event: Diarrhea [5, 13]: 4 (20.0) n (%) | Adverse event: Discolored feces [5, 13]: 0 n (%) | Adverse event: Dizziness [5, 13]: 5 (25.0) n (%) | Adverse event: Dry skin [5, 13]: 0 n (%) | Adverse event: Dyspepsia [5, 13]: 0 n (%) | Adverse event: Feeling cold [5, 13]: 2 (10.0) n (%) | Adverse event: Feeling hot [5, 13]: 0 n (%) | Adverse event: Flatulence [5, 13]: 0 n (%) | Adverse event: Headache [5, 13]: 2 (10.0) n (%) | Adverse event: Hot flush [5, 13]: 0 n (%) | Adverse event: Nasopharyngitis [5, 13]: 0 n (%) | Adverse event: Nausea [5, 13]: 7 (35.0) n (%) | Adverse event: Palpitations [5, 13]: 0 n (%) | Adverse event: Pharyngolaryngeal pain [5, 13]: 0 n (%) | Adverse event: Restlessness [5, 13]: 0 n (%) | Adverse event: Rhinitis [5, 13]: 1 (5.0) n (%) | Adverse event: Sleep disorder [5, 13]: 0 n (%) | Adverse event: Somnolence [5, 13]: 0 n (%) | Adverse event: Vomiting [5, 13]: 1 (5.0) n (%) | diarrhea ([6]; rifampicin study, by arm): 33% | nausea ([6]; rifampicin study, by arm): 38% | participants who experienced an AE ([6]; rifampicin study, by arm): 62% | Adverse event: Abdominal distension [6, 14]: 0 n (%) | Adverse event: Any preferred term [6, 14]: 13 (61.9) n (%) | Adverse event: Back pain [6, 14]: 1 (4.8) n (%) | Adverse event: Chromaturia [6, 14]: 0 n (%) | Adverse event: Cough [6, 14]: 0 n (%) | Adverse event: Diarrhea [6, 14]: 7 (33.3) n (%) | Adverse event: Discolored feces [6, 14]: 0 n (%) | Adverse event: Dizziness [6, 14]: 0 n (%) | Adverse event: Dry skin [6, 14]: 0 n (%) | Adverse event: Dyspepsia [6, 14]: 0 n (%) | Adverse event: Feeling cold [6, 14]: 0 n (%) | Adverse event: Feeling hot [6, 14]: 0 n (%) | Adverse event: Flatulence [6, 14]: 1 (4.8) n (%) | Adverse event: Headache [6, 14]: 1 (4.8) n (%) | Adverse event: Hot flush [6, 14]: 0 n (%) | Adverse event: Nasopharyngitis [6, 14]: 2 (9.5) n (%) | Adverse event: Nausea [6, 14]: 8 (38.1) n (%) | Adverse event: Palpitations [6, 14]: 0 n (%) | Adverse event: Pharyngolaryngeal pain [6, 14]: 0 n (%) | Adverse event: Restlessness [6, 14]: 0 n (%) | Adverse event: Rhinitis [6, 14]: 0 n (%) | Adverse event: Sleep disorder [6, 14]: 0 n (%) | Adverse event: Somnolence [6, 14]: 0 n (%) | Adverse event: Vomiting [6, 14]: 1 (4.8) n (%) | response rate according to Valent criteria ([7]; phase II investigator-initiated study, 100 mg twice daily, 26 patients with ASM): 69% | good partial responses (number of patients) [7, 15]: 5 | incomplete remissions (number of patients) [7, 15]: 6 | major responses (number of patients) [7, 15]: 10 | minor partial responses (number of patients) [7, 15]: 3 | pure clinical responses (number of patients) [7, 15]: 4 | major response [7, 16]: 53% | overall response rate [7, 16]: 60% | inhibition or induction of CYP3A4 in vivo ([8]; humans, single dose 100 mg and 50 mg twice daily): neither an inhibitor nor inducer; also recorded: neither a CYP3A4 inhibitor nor a CYP3A4 inducer | effect on concentrations of midazolam and 1′-hydroxymidazolam ([8]; single or multiple doses of midostaurin): did not appreciably affect | fraction of midostaurin metabolized by CYP3A4 (FmCYP3A4) ([9]; 1 − AUCinf (without ketoconazole)/AUCinf (with ketoconazole)): 91% | DDI classification (PhRMA proposal for drugs biotransformed via CYP3A4) ([9]; co-administration with ketoconazole): strong | elimination t 1/2 in the presence of ketoconazole ([9]; compared with placebo): prolonged | AUC(0-inf) ([9]; human, plasma, oral, plasma, Ketoconazole + midostaurin arm (midostaurin 50 mg once, ketoconazole 400 mg daily), n = 18): 206000 ng·h/mL | AUC(0-inf) ([9]; human, plasma, oral, plasma, Placebo + midostaurin arm (midostaurin 50 mg once), ketoconazole study, n = 18): 19800 ng·h/mL | Cmax [9, 17]: 2890 ng/mL | Cmax [9, 18]: 1590 ng/mL | half-life [9, 17]: 90.6 h | half-life [9, 18]: 23.3 h | Tmax ([9]; human, plasma, oral, t max, median, plasma, Ketoconazole + midostaurin arm, n = 18): 1.5 h | t max, Hodges–Lehmann estimate of median difference (90 % distribution-free CI) ([9]; ketoconazole + midostaurin vs placebo + midostaurin): 0.5 (0, 0.5) h | increase in AUC (exposure) with ketoconazole compared with placebo [9, 19]: more than tenfold; also recorded: tenfold | increase in C max with ketoconazole compared with placebo [9, 19]: ≈ 1.8 fold and 1.8 fold

Source: paper PMC3834177 (Cancer Chemotherapy and Pharmacology, 2013)
